Tests used:
MRC-5 cells [1] = assay: Morphological analysis of apoptotic cells (AO/EB staining); format: cell-based, human; conditions: peptide 1 mg mL^−1, MMS 4 × 10^−5 M, 24 h
Description: (§1) For this assay, the concentration of peptides was 1 mg mL^−1. […] Peptides and control solutions were incubated as described above. Cells with the morphological characteristics of apoptosis, such as apoptotic bodies, peripheral condensation of chromatin, fragmented nucleus, and small cell volume, were evaluated after 24 h of treatment, either with controls or peptides. The evaluation was executed using acridine orange (AO)/ethidium bromide (EB) staining assay. A total of 50 µL of the cell suspension was mixed with 1 µL of the staining solution (100 µg/mL AO + 100 µg/mL EB in PBS) and spread on a slide, where 300 cells were counted per data point.

HaCaT cells [2] = assay: as above; format: cell-based, human; conditions: peptide 1 mg mL^−1, MMS 4 × 10^−5 M, 24 h
Description: as §1

[3] = test system: HaCaT (human keratinocytes); assay: Cytotoxicity MTT assay; format: cell-based; conditions: peptide 1 mg mL^−1, MMS 4 × 10^−5 M, absorbance 595 nm, three independent experiments
Description: (§2) The cytotoxicity assay was assessed by measuring the ability of live cells to convert a yellow dye, 3-(4,5-dimethyl-2-thiozolyl)-2,5-diphenyl-2H-tetrazolium bromide (MTT), to formazan. The cell lines used were L929 (murine fibroblasts, ATCC number CCL-1), MRC-5 (human lung fibroblasts, ATCC number CCL-171), and HaCaT (human keratinocytes) following the methodology described by Souza et al.. Cells were treated with Mo-CBP3-PepI at 1 mg mL^−1. The alkylating agent methyl methanesulfonate (MMS) at 4 × 10^−5 M was used as the positive control. The MTT formazan product was dissolved in 150 µL of DMSO, and the absorbance was measured using a multiplate reader (Spectra Count, Packard, Mississauga, ON, Canada). The drug effect was quantified as the percentage of control absorbance of the reduced dye at 595 nm.

[4] = test system: MRC-5 (human lung fibroblasts); assay: Cytotoxicity MTT assay; format: cell-based; conditions: peptide 1 mg mL^−1, MMS 4 × 10^−5 M, absorbance 595 nm, three independent experiments
Description: as §2

[5] = test system: L929 (murine fibroblasts); assay: Cytotoxicity MTT assay; format: cell-based, mice; conditions: peptide 1 mg mL^−1, MMS 4 × 10^−5 M, absorbance 595 nm, three independent experiments
Description: as §2

L929 cells [6] = assay: Alkaline comet assay (DNA damage); format: cell-based, mice; conditions: MMS 4 × 10^−5 M, 24 h
Description: (§3) For this assay, MMS at 4 × 10^−5 M was used as the positive control for DNA damage, and peptides were assayed at 1 mg mL^−1. The standard alkaline comet assay (single-cell gel electrophoresis) after treatment (24 h). Cells were washed with ice-cold PBS, trypsinized, and resuspended in a complete medium. […] Afterward, the slides were placed in a horizontal electrophoresis unit and incubated with fresh buffer solution (0.3 M NaOH, 0.001 M EDTA, pH 13.0) at 4 °C for 20 min to allow DNA to unwind and the expression of alkali-labile sites. Electrophoresis was conducted for 20 min at 25 V ([…]). All the above steps were performed in the dark to prevent additional DNA damage. Slides were neutralized (0.4 M Tris, pH 7.5) and stained using 20 µg mL of ethidium bromide. Three hundred cells (100 cells from each of the three replicate slides for each treatment) were selected, coded, and blindly analyzed for DNA migration. These cells were visually scored according to tail length into five classes: • Class 0: undamaged, without a tail; • Class 1: with a tail shorter than the diameter of the head nucleus; • Class 2: with tail length 1–2× the diameter of the head; • Class 3: with a tail longer than 2× the diameter of the head; • Class 4: comets with no heads. The index of damage (ID) value was calculated for each sample. […]

L929 cells [7] = assay: Morphological analysis of apoptotic cells (AO/EB staining); format: cell-based, mice; conditions: peptide 1 mg mL^−1, MMS 4 × 10^−5 M, 24 h
Description: as §1

MRC-5 cells [8] = assay: Alkaline comet assay (DNA damage); format: cell-based, human; conditions: peptide 1 mg mL^−1, MMS 4 × 10^−5 M, 24 h
Description: as §3

HaCaT cells [9] = assay: Alkaline comet assay (DNA damage); format: cell-based, human; conditions: peptide 1 mg mL^−1, MMS 4 × 10^−5 M, 24 h
Description: as §3

## COS(C)(=O)=O [MMS, methyl methanesulfonate]
MRC-5 cells [1]
  cell morphology / apoptosis: severe damage to DNA and nuclei structure
HaCaT cells [2]
  cell morphology / apoptosis: severe damage to DNA and nuclei structure
[3]
  cell viability (MTT): death of all cells
[4]
  cell viability (MTT): death of all cells
[5]
  cell viability (MTT): death of all cells
L929 cells [6]
  DNA damage (comet assay): completely damaged DNA
L929 cells [7]
  cell morphology / apoptosis: severe damage to DNA and nuclei structure
MRC-5 cells [8]
  DNA damage (comet assay): completely damaged DNA
HaCaT cells [9]
  DNA damage (comet assay): completely damaged DNA

From PMC9774128, “New Insights into the Mechanism of Antibacterial Action of Synthetic Peptide Mo-CBP3-PepI against Klebsiella pneumoniae” (Antibiotics, 2022)
